Values joined by “and” are separate entries in the source; they are usually repeats but may differ in a detail not shown here. Equal values may be shown once.
Row | SMILES | melting point
1 | O=C(O)c1ccsc1 [thiophene-3-carboxylic acid] | 139 °C
2 | c1ccsc1 [thiophene] | -38 °C (3×) and -38.2 °C and -38.3 °C (2×)
3 | NC(N)=S [thiourea] | 177 °C
4 | O=c1c2ccccc2sc2ccccc12 [thioxanthen-9-one] | 212 °C
5 | Cc1cn([C@H]2C[C@H](O)[C@@H](CO)O2)c(=O)[nH]c1=O [thymidine] | 188 °C
6 | Cc1ccc(C(C)C)c(O)c1 [thymol] | 51 °C
7 | Cc1cc(O)c(C(C)C)cc1C1(c2cc(C(C)C)c(O)cc2C)OC(=O)c2ccccc21 [thymolphthalein] | 252 °C
8 | C/C=C(\C)C(=O)O [tiglic acid] | 64 °C
9 | COc1ccc2c(C(=S)N(C)CC(=O)O)cccc2c1C(F)(F)F [tolrestat] | 164 °C
10 | Cc1ccc(N=C=O)cc1N=C=O [toluene-2,4-diisocyanate] | 21 °C
11 | Cc1ccccc1 [toluene] | -93 °C
12 | OC/C(Br)=C(\Br)CO [trans-2,3-dibromo-2-butene-1,4-diol] | 113 °C
13 | O=C(O)/C=C/c1ccccc1O [trans-2-hydroxycinnamic acid] | 217 °C
14 | C/C=C/CCCCC [trans-2-octene] [listing 1 of 2 here] | -88 °C
15 | C/C=C/CCCCC [trans-2-octene] [listing 2 of 2 here] | -88 °C
16 | C/C=C/CC [trans-2-pentene] | -136 °C
17 | O=C(O)/C=C/c1cccc(Br)c1 [trans-3-bromocinnamic acid] | 180 °C
18 | CCCCC[C@H]1CC[C@H](C(=O)O)CC1 [trans-4-n-pentylcyclohexanecarboxylic acid] | 54 °C
19 | CCC/C=C/CCC [trans-4-octene] | -94 °C
20 | O=C(O)/C=C/c1ccccc1 [trans-cinnamic acid] | 135 °C
21 | C1CC[C@H]2CCCC[C@@H]2C1 [trans-decahydronaphthalene] | -32 °C
22 | CCCCB(CCCC)CCCC [tri-n-butylborane] | -34 °C
23 | CCCN(CCC)CCC [tri-n-propylamine] | -93 °C
24 | Nc1nc(N)c2nc(-c3ccccc3)c(N)nc2n1 [triamterene] | 316 °C
25 | O=C(O)C(Br)(Br)Br [tribromoacetic acid] | 132 °C
26 | O=C(Cl)C(Cl)(Cl)Cl [trichloroacetyl chloride] [listing 1 of 2 here] | -146 °C

Row | SMILES | melting point
27 | O=C(Cl)C(Cl)(Cl)Cl [trichloroacetyl chloride] [listing 2 of 2 here] | -56.9 °C and -57 °C
28 | CCCCCCCCCCCCC=O [tridecanal] | 15 °C
29 | CCO[SiH](OCC)OCC [triethoxysilane] | -170 °C
30 | OC(CCN1CCCCC1)(c1ccccc1)C1CCCCC1 (stereo unspecified) [trihexyphenidyl] | 115 °C
31 | CC(C)OB(OC(C)C)OC(C)C [triisopropyl borate] | -59 °C
32 | COc1cc(Cc2cnc(N)nc2N)cc(OC)c1OC [trimethoprim] | 200 °C
33 | CC(C)(C)C#N [trimethylacetonitrile] | 17 °C
34 | CP(C)(C)=O [trimethylphosphine oxide] | 141 °C
35 | CC(CN(C)C)CN1c2ccccc2CCc2ccccc21 (stereo unspecified) [trimipramine] | 45 °C
36 | c1ccc(N(c2ccccc2)c2ccccc2)cc1 [triphenylamine] | 127 °C
37 | c1ccc(B(c2ccccc2)c2ccccc2)cc1 [triphenylborane] | 147 °C
38 | c1ccc2c(c1)c1ccccc1c1ccccc21 [triphenylene] | 199 °C and 196 °C and 197 °C
39 | OC(c1ccccc1)(c1ccccc1)c1ccccc1 [triphenylmethanol] [listing 1 of 2 here] | 163 °C
40 | OC(c1ccccc1)(c1ccccc1)c1ccccc1 [triphenylmethanol] [listing 2 of 2 here] | 163 °C
41 | c1ccc([SiH](c2ccccc2)c2ccccc2)cc1 [triphenylsilane] | 43 °C
42 | c1csc(P(c2cccs2)c2cccs2)c1 [tris(2-thienyl)phosphine] | 29 °C
43 | C[Si](C)(C)OB(O[Si](C)(C)C)O[Si](C)(C)C [tris(trimethylsilyl) borate] | -35 °C
44 | CN1[C@@H]2CC[C@H]1C[C@@H](O)C2 [tropine] | 63 °C
45 | O=c1cccccc1O [tropolone] | 53 °C
46 | CCCCCCCCCCC=O [undecanal] | 0 °C and -2 °C
47 | O=c1cc[nH]c(=O)[nH]1 [uracil] | 330 °C
48 | COc1cc(C=O)ccc1O [vanillin] | 82 °C
49 | C=COC(C)=O [vinyl acetate] | -100 °C
50 | Cc1cc(CC(=O)O)n(C)c1C(=O)c1ccc(Cl)cc1 [zomepirac] | 178 °C
51 | O=C(O)Cc1nn(Cc2nc3cc(C(F)(F)F)ccc3s2)c(=O)c2ccccc12 [zopolrestat] | 197 °C

Reference: the Bradley open melting point set (2014)
